Experimental findings from the PolyMetriX glass transition set are described below.

As for `*/C(CCCCCC)=C(/*)c1ccccc1` (repeat unit), the glass transition temperature was 200.00 °C.

For `*/C=C/CCCCCCCCCC(CCCCCCCCC*)COCCOCCOCCOCCOCCCCCC` (repeat unit), the glass transition temperature was -76.00 °C.

Take `*/C=C/CCCCCCCCCC(Cl)CCCCCCCCC*` (repeat unit): the glass transition temperature was -37.00 °C.

`*/C=C/c1ccc(OC(=O)CCCCCCCCC(=O)Oc2ccc(-c3nnc(*)s3)cc2)cc1` (repeat unit) came in with a glass transition temperature of 30.00 °C.

As to `*C(=O)Nc1ccc(C(c2ccc(NC(=O)c3ccc(N4C(=O)c5ccc(*)cc5C4=O)cc3C)cc2)(C(F)(F)F)C(F)(F)F)cc1` (repeat unit), the glass transition temperature turned out to be 355.00 °C.

The compound `*C/C=C/COC(=O)CCCCCCCCC(=O)O*` (repeat unit) showed a glass transition temperature of -41.00 °C.

In the case of `*CC#CCOC(=O)CCCCCCCCC(=O)O*` (repeat unit), the glass transition temperature was -26.50 °C.

Regarding `*CC(O)COC(=O)CCCCCCCCC(=O)OCC(O)COc1ccc(C(=O)Oc2ccc(O*)cc2)cc1` (repeat unit), the glass transition temperature was determined as 36.00 °C.

For the compound `*CC1CCC(CNC(=O)CCCCCCCCC(=O)N*)CC1` (repeat unit), the glass transition temperature is 89.00 °C.

Compound `*CC1CCC(CNC(=O)CCCCCCCCCCC(=O)N*)CC1` (repeat unit) gave a glass transition temperature of 85.00 °C.

Turning to `*CCCC1(CCCNC(=O)CCCCCCCCC(=O)N*)c2ccccc2-c2ccccc21` (repeat unit), the glass transition temperature amounted to 85.00 °C.

As to `*CCCCCCC(=O)Oc1ccc(-c2ccc(OC(=O)c3ccc4c(c3)C(=O)N(*)C4=O)cc2)cc1` (repeat unit), the glass transition temperature was 107.00 °C.

Take `*CCCCCCC(=O)Oc1ccc(OC(=O)c2ccc3c(c2)C(=O)N(*)C3=O)cc1` (repeat unit): the glass transition temperature was 74.31 °C.

In the case of `*CCCCCCCC(=O)N*` (repeat unit), the glass transition temperature was found to be 37.00 °C.

In turn, `*CCCCCCCCC(c1ccc(O)cc1)C(*)c1ccc(O)cc1C` (repeat unit) gave a glass transition temperature of -12.00 °C.

In the case of `*CCCCCCCCCCC(=O)NCCCCCC(=O)N*` (repeat unit), the glass transition temperature came out at 25.50 °C.

Turning to `*CCCCCCCCCCC(=O)NCCc1ccc(CCNC(=O)CCCCCCCCCCS*)cc1` (repeat unit), the glass transition temperature was determined as 58.00 °C.

`*CCCCCCCCCCC(=O)Oc1ccc(-c2ccc(OC(=O)c3ccc4c(c3)C(=O)N(*)C4=O)cc2)cc1` (repeat unit) had a glass transition temperature of 61.00 °C.

As to `*CCCCCCCCCCCC(=O)N(*)C` (repeat unit), the glass transition temperature was -29.00 °C.

As to `*CCCCCCCCCCCC(=O)Oc1ccc(-c2ccc(OC(=O)c3ccc4c(c3)C(=O)N(*)C4=O)cc2)cc1` (repeat unit), the glass transition temperature stood at 60.00 °C.

In turn, `*CCCCCCCCCCCC(=O)Oc1ccc(C2(c3ccc(OC(=O)c4ccc5c(c4)C(=O)N(*)C5=O)cc3)OC(=O)c3ccccc32)cc1` (repeat unit) returned a glass transition temperature of 114.00 °C.

In turn, `*CCCCCCCCCCCC(=O)Oc1ccc(OC(=O)c2ccc3c(c2)C(=O)N(*)C3=O)cc1` (repeat unit) returned a glass transition temperature of 58.00 °C.

The compound `*CCCCCCCCCCCCC(=O)N*` (repeat unit) yielded a glass transition temperature of 41.00 °C.

As to `*CCCCCCCCCCCCCCCCCCCCC(*)COCCOCCOCCOCCOCc1ccc2ccc3cccc4ccc1c2c34` (repeat unit), the glass transition temperature was -21.00 °C.

`*CCCCCCCCCCCCCCNC(=O)CCCCCCCCCCCCCCCCC(=O)N*` (repeat unit) yielded a glass transition temperature of 48.00 °C.

`*CCCCCCCCCCCCNC(=O)CCCCCCCCCCCCCCC(=O)N*` (repeat unit): the glass transition temperature is 46.00 °C.

Compound `*CCCCCCCCCCCCNC(=O)CCCCCCCCCCCCCCCCC(=O)N*` (repeat unit) came in with a glass transition temperature of 46.50 °C.

On to `*CCCCCCCCCCN1C(=O)C2C3C=CC(C4C(=O)N(*)C(=O)C34)C2C1=O` (repeat unit), for which the glass transition temperature was 219.00 °C.

Regarding `*CCCCCCCCCCNC(=O)CCCCCCCCCCCCCCCCC(=O)N*` (repeat unit), the glass transition temperature was 46.00 °C.

`*CCCCCCCCCCOC(=O)CCCCCCCCCCCCCCCCC(=O)O*` (repeat unit) had a glass transition temperature of -17.00 °C.

Compound `*CCCCCCCCCCOC(=O)NNC(=O)CCCCCCCCC(=O)NNC(=O)O*` (repeat unit) showed a glass transition temperature of 34.00 °C.

As to `*CCCCCCCCCC[N+](*)(C)C` (repeat unit), the glass transition temperature came to 65.90 °C.

As for `*CCCCCCCCN(C)c1ccc(C(=O)c2ccc(N(*)C)cc2)cc1` (repeat unit), the glass transition temperature stood at 50.00 °C.

For the compound `*CCCCCCCCNC(=O)CCCCCCCCCCCCCCC(=O)N*` (repeat unit), the glass transition temperature came to 52.00 °C.

`*CCCCCCCCNC(=O)CCCCCCCCCCCCCCCCC(=O)N*` (repeat unit) gave a glass transition temperature of 36.00 °C.

`*CCCCCCCCNC(=O)CCCCCCCCCCCCCCCCCCCCC(=O)N*` (repeat unit): the glass transition temperature was determined as 48.00 °C.

For `*CCCCCCN(C)C(=O)CCCC(=O)N(*)C` (repeat unit), the glass transition temperature turned out to be 3.00 °C.

Regarding `*CCCCCCN(C)c1ccc(C(=O)c2ccc(N(*)C)cc2)cc1` (repeat unit), the glass transition temperature came out at 75.50 °C.

`*CCCCCCN1C(=O)C(=O)N(*)C1=O` (repeat unit) gave a glass transition temperature of 55.00 °C.

`*CCCCCCN1C(=O)C(C)C(SCCOCCSC2C(=O)N(CCCCCCN3C(=O)CC(C)(SCCOCCSC4(C)CC(=O)N(*)C4=O)C3=O)C(=O)C2C)C1=O` (repeat unit) yielded a glass transition temperature of 78.00 °C.

With `*CCCCCCNC(=O)CCCCCCCCCCCCCCCCC(=O)N*` (repeat unit), the glass transition temperature is 47.00 °C.

In the case of `*CCCCCCc1nc2cc(NC(=O)CCCCCCCCC(=O)Nc3ccc4oc(*)nc4c3)ccc2o1` (repeat unit), the glass transition temperature is 86.00 °C.

In the case of `*CCCCOC(=O)CCCCCCCCC(=O)O*` (repeat unit), the glass transition temperature was -57.00 °C.

Regarding `*CCCNC(=O)CCCCCCCCC(=O)NCCCOCCOCCO*` (repeat unit), the glass transition temperature turned out to be 40.00 °C.

For `*CCOC(=O)CCCCCCCCC(=O)OCCOC(=O)c1ccc(C(=O)O*)cc1` (repeat unit), the glass transition temperature is -6.50 °C.

On to `*CCc1ccc(CCNC(=O)CCCCCCCCCCCCCCCCC(=O)N*)cc1` (repeat unit), for which the glass transition temperature was found to be 75.00 °C.

Regarding `*CNC(=O)CCCCCCCCC(=O)NCC1COC(*)CO1` (repeat unit), the glass transition temperature came to 73.00 °C.

The compound `*Cc1ccc(CNC(=O)CCCCCCCCCC(=O)N*)cc1` (repeat unit) displayed a glass transition temperature of 110.00 °C.

Regarding `*Cc1ccc(CNC(=O)CCCCCCCCCCC(=O)N*)cc1` (repeat unit), the glass transition temperature was found to be 105.00 °C.

`*Cc1ccc(CNC(=O)CCCCCCCCCCCC(=O)N*)cc1` (repeat unit) came in with a glass transition temperature of 100.00 °C.

In turn, `*Cc1ccc(CNC(=O)CCCCCCCCCCCCCCCCC(=O)N*)cc1` (repeat unit) returned a glass transition temperature of 75.00 °C.

Take `*NC1CCC(CC2CCC(NC(=O)CCCCCCCCCCCCC(*)=O)CC2)CC1` (repeat unit): the glass transition temperature was found to be 131.00 °C.

As for `*Nc1cc(NC(=O)c2cc(NC(=O)C(C(C)CC)N3C(=O)c4ccccc4C3=O)cc(C(*)=O)c2)ccc1C` (repeat unit), the glass transition temperature came to 166.00 °C.

On to `*Nc1ccc(Cc2ccc(NC(=O)CCCCCCCCC(*)=O)cc2)cc1` (repeat unit), for which the glass transition temperature was determined as 160.00 °C.

As for `*Nc1ccc(Cc2ccc(NC(=O)c3cc(NC(=O)CCCN4C(=O)c5ccccc5C4=O)cc(C(*)=O)c3)cc2)cc1` (repeat unit), the glass transition temperature was 220.00 °C.

Compound `*Nc1ccc(Cc2ccc(NC(=O)c3cc(NC(=O)CCN4C(=O)c5ccccc5C4=O)cc(C(*)=O)c3)cc2)cc1` (repeat unit) yielded a glass transition temperature of 235.00 °C.

`*Nc1ccc(Cc2ccc(NC(=O)c3cc(NC(=O)c4ccc(NC(=O)C(CC(C)C)N5C(=O)c6ccccc6C5=O)cc4)cc(C(*)=O)c3)cc2)cc1` (repeat unit) gave a glass transition temperature of 238.00 °C.

Compound `*OC(=O)CCCCCCCCC(*)=O` (repeat unit) had a glass transition temperature of 60.00 °C.

For the compound `*Oc1c(-c2ccccc2)cc(Cc2cc(-c3ccccc3)c(OC(=O)CCCCCCCCC(*)=O)c(-c3ccccc3)c2)cc1-c1ccccc1` (repeat unit), the glass transition temperature turned out to be 92.00 °C.

In turn, `*Oc1ccc(C2(c3ccc(OC(=O)CCCCCCCCCC(*)=O)cc3)c3ccccc3-c3ccccc32)cc1` (repeat unit) displayed a glass transition temperature of 136.00 °C.

`*Oc1ccc(NC(=O)CCCCCCCCC(=O)Nc2ccc(*)cc2)cc1` (repeat unit) returned a glass transition temperature of 160.00 °C.

`*Oc1ccc(NC(=O)CCCCCCCCCCC(=O)Nc2ccc(*)cc2)cc1` (repeat unit) registered a glass transition temperature of 150.00 °C.

In turn, `*Oc1ccc(OC(=O)CCCCCCCCC(*)=O)cc1` (repeat unit) registered a glass transition temperature of 52.80 °C.

`*Oc1ccc(Oc2ccc(C(=O)c3ccc(NC(=O)CCCCCCCCC(=O)Nc4ccc(C(=O)c5ccc(*)cc5)cc4)cc3)cc2)cc1` (repeat unit): the glass transition temperature worked out at 130.00 °C.

With `*Oc1ccc(Oc2ccc(C(=O)c3cccc(NC(=O)CCCCCCCCC(=O)Nc4cccc(C(=O)c5ccc(*)cc5)c4)c3)cc2)cc1` (repeat unit), the glass transition temperature stood at 144.00 °C.

Regarding `*Oc1cccc(NC(=O)CCCCCCCCC(=O)Nc2ccc(*)cc2)c1` (repeat unit), the glass transition temperature turned out to be 125.00 °C.

As to `*Oc1cccc(Oc2ccc(C(=O)c3ccc(NC(=O)CCCCCCCCC(=O)Nc4ccc(C(=O)c5ccc(*)cc5)cc4)cc3)cc2)c1` (repeat unit), the glass transition temperature worked out at 143.00 °C.

Take `*c1ccc2c(c1)C(=O)N(c1cc(C(=O)Nc3ccc(C(c4ccc(NC(=O)c5ccc(C)c(N6C(=O)c7ccc(C(*)(C(F)(F)F)C(F)(F)F)cc7C6=O)c5)cc4)(C(F)(F)F)C(F)(F)F)cc3)ccc1C)C2=O` (repeat unit): the glass transition temperature stood at 293.50 °C.

As for `*c1ncnc(N(CCCCCCN(*)c2ccccc2)c2ccccc2)n1` (repeat unit), the glass transition temperature came out at 72.00 °C.
